Here are results for four compounds from ChEMBL document CHEMBL3804816 (Medchemcomm, 2016).

Active and inactive are the calls of the source. No cut-off for these calls is given here.

Common to all, as to assay type: cell-based
Experiment [1] has as its system IMR-32. The experiment is described as follows: Agonist activity at GABA type-A receptor in human IMR32 cells at 100 uM after 2 hrs by Epic DMR assay.
Experiment [2] deals with IMR-32. The experiment is described as follows: Agonist activity at GABA type-A receptor in human IMR32 cells at 1 mM after 2 hrs by Epic DMR assay.
Experiment [3] can be described thus: Agonist activity at GABA type-A receptor in human IMR32 cells after 2 hrs by Epic DMR assay. The following applies: IMR-32, 2 h.
The nature of experiment [4]: Antagonist activity against GABA type-A receptor in human IMR32 cells assessed as GABA-induced response preincubated for 10 mins followed by GABA addition measured at 140 mins by Epic DMR assay.

With `NCC(CC(=O)O)c1ccc(Cl)cc1` (racemic), in the experiment on IMR-32 [1], the result was inactive.

Regarding `Oc1noc2c1CCNC2`, the result in the experiment with IMR-32 [2] was Active.

Regarding `NCc1cc(O)no1` [MUSCIMOL], the EC50 in experiment [3] (read-out: EC50) was 2.04 µM; in experiment [3] (read-out: pEC50 (converted)) it was 1.7 µM. Also, the outcome in the experiment on IMR-32 [2] was Active.

On to `COc1ccc(-c2ccc(=N)n(CCCC(=O)O)n2)cc1` [GABAZINE], for which the IC50 in experiment [4] (IMR-32, read-out: IC50) was 7.38 µM; in experiment [4] (IMR-32, read-out: pIC50 (converted)) it was 4.57 µM.
